Here are results for one compound from patent publication US11298422B2, “Treating tumors with TTFields and an aurora kinase inhibitor” (Novocure Limited, priority 2018, dated 2022).

In assay [1] the test system is glioblastoma cell line HT 12347. The assay is described as follows: PI (propium iodide) staining of DNA content, primary glioblastoma cells. The following applies: HT 12347, TTFields combined with MLN8237 (FIGS. 9A-9E). It is filed as cell-based. An excerpt:
FIGS. 9A-9E show exemplary PI (propium iodide) staining results showing DNA content after treatment with TTFields alone, […] alone, and in combination in glioblastoma cell line HT 12347 with corresponding cell cycle histograms. FIG. 9A is a summary, with 2n in light gray, 4n in dark gray, and r>4n in black; FIG. 9B is a cell cycle histogram for the control; FIG. 9C is a cell cycle histogram for […] treatment alone; FIG. 9D is a cell cycle histogram for MLN8237 alone; and FIG. 9E is a cell cycle histogram for TTFields combined with MLN8237.

Assay [2] relates to primary glioblastoma cell line HT12347. The assay is described as follows: Light microscopy, primary glioblastoma cells. The assay is classed as cell-based. The note with it: HT12347, TTFields and MLN8237 combination vs control and each alone (FIGS. 10A-10D). The method, then:
Cells were treated with control, AZD1152, TTFields, or a combination of both. […] FIGS. 10A-10D show exemplary light microscopy images of primary glioblastoma cells HT12347 after the following treatment: 10A: control; 10B: after […] treatment; 10C: after treatment with MLN8237 alone; 10D: after treatment with TTFields and MLN8237.

Another assay has as its system U87-MG. The assay is described as follows: Normalized cell count, U87-MG (additional study). It is filed as cell-based, human. The note with it: compared to each treatment alone, Mann-Whitney-U-test, p<0.01. As to the method: In addition to U87-MG cells, primary tumor-cell lines were established from glioblastoma tissue taken intraoperatively. TTFields (1.6 V/cm RMS, 200 kHz) were applied for 72 hours using the Inovitro™ system. AZD1152 was added to the media in concentrations of up to 100 nmol/l. Cell counts, cell cycle and clonogenic potential were determined at the end of treatment. Primary tumor-cell-lines were analyzed. In addition, MLN8237, an Aurora A kinase inhibitor, was tested in concentrations up to 50 nmol/l for the treatment of U87-MG and primary tumor-cell lines to further establish Aurora kinase inhibition as a target for combination therapy with TTFields. […] FIGS. 8A-8B show the normalized cell counts after treatment with TTFields and MLN8237, alone and in combination, on U87-MG (FIG. 8A) and primary glioblastoma cell line HT12347 (FIG. 8B). The exemplary box plots show the normalized cell count after treatment with TTFields alone, MLN8237 alone, and combination of MLN8237 and TTFields in U87 cells ([…]), and in HT12347 glioblastoma cells (FIG. 8B). The greatest reduction in the percentage of living cells in relation to the control is shown with the combination of TTFields and MLN8237.

Assay [3] relates to primary glioblastoma cell line HT12347. The assay is described as follows: Normalized cell count, primary glioblastoma cells. The note with it: primary glioblastoma cell-lines, compared to each treatment alone; Mann-Whitney-U-test, p<0.01. The assay is classed as cell-based. As to the method:
In addition to U87-MG cells, primary tumor-cell lines were established from glioblastoma tissue taken intraoperatively. TTFields (1.6 V/cm RMS, 200 kHz) were applied for 72 hours using the InovitroTM system. AZD1152 was added to the media in concentrations of up to 100 nmol/l. Cell counts, cell cycle and clonogenic potential were determined at the end of treatment. Primary tumor-cell-lines were analyzed. In addition, MLN8237, an Aurora A kinase inhibitor, was tested in concentrations up to 50 nmol/l for the treatment of U87-MG and primary tumor-cell lines to further establish Aurora kinase inhibition as a target for combination therapy with TTFields. […] FIGS. 5A and 5B show the normalized cell counts after treatment with TTFields and AZD1152, alone and in combination, on U87-MG (FIG. 5A) and primary glioblastoma cell line HT12347 (FIG. 5B) at the indicated AZD1152 concentration and […] frequency. The exemplary box plots show the normalized cell count after treatment with AZD1152 alone, TTFields alone, and combination of AZD1152 and TTFields. “***” marks significant differences where p<0.001. […] FIGS. 8A-8B show the normalized cell counts after treatment with TTFields and MLN8237, alone and in combination, on U87-MG (FIG. 8A) and primary glioblastoma cell line HT12347 (FIG. 8B). […]

For the compound `COc1cc(Nc2ncc3c(n2)-c2ccc(Cl)cc2C(c2c(F)cccc2OC)=NC3)ccc1C(=O)O` [MLN8237, Alisertib], the “multinuclear and polyploid cells (PI staining, DNA content)” value in assay [1] was “higher number of multinuclear and polyploid cells”. Also, in assay [2], the “number of cells in light microscopy images” value is reported as “lowest number of cells”. For the same compound, the “cell numbers after combined treatment of MLN8237 and TTFields” value (in the assay on U87-MG; in assay [3]) was “significant decrease of cell numbers” throughout.
